Earlier results, collected in US8497291B2 (Cyclacel Limited, priority 2005, dated 2013).
Read-outs that look alike come from different tables or passages of the source.

Experiments:
[1] = tested on: variety of cell lines, xenograft and metastatic cancer model
colon cancer = conditions: model of colon cancer
[2] = phase I, patients with a variety of cancers

In the case of `CCCCCCCCCCCCCCCC(=O)Nc1ccn([C@@H]2O[C@H](CO)[C@@H](O)[C@@H]2C#N)c(=O)n1` [CYC682, 2′-cyano-2′-deoxy-N^4-palmitoyl-1-β-D-arabinofuranosylcytosine], the anti-tumour activity ([1]; as demonstrated in EP 536936) is given as “excellent anti-tumour activity”, the anti-tumour activity ([1]; variety of cell lines, xenograft and metastatic cancer model) is given as “potent anti-tumour activity” and the anticancer activity (colon cancer) is given as “strong anticancer activity”. The “increasing survival compared with gemcitabine or 5-FU” value (colon cancer) was “superior”, the “preventing the spread of colon cancer metastases to the liver compared with gemcitabine or 5-FU” value (colon cancer) was “superior” and the dose limiting toxicity [2] was “myelosuppression”. For the same molecule, the tolerability in humans [2] was “well tolerated”.
